Source: ChEMBL document CHEMBL1201862, “PubChem BioAssay data set” (2004)
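Where inhibition never reached the appropriate level, the endpoint shown equals the highest concentration tested. Otherwise, values were interpolated linearly from a five-concentration, 48-hour dose response in 96-well plates. GI50 = concentration required for 50% inhibition of growth.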 Active and inactive are the calls of the source. No stated cut-off is given here; in the data, active = GI50 up to about 1.1 µM and inactive = higher. *1 amine or outer side, *2 acyl side, *3 side chain or, on linkers, in order; H or OH if unused. Where a SMILES comes first, the peptide text is derived from it. The star is where a group is joined. γGlu = O=C(O)[CH](CCC(=O)[*:2])N[*:1]; NHOH = ON*

Key:
Experiment in all cases: growth of human tumour cells (NCI), 48 h
HCT-15 = tested on: HCT-15
HOP-92 = tested on: HOP-92
UACC-257 = tested on: UACC-257
SK-OV-3 = tested on: SK-OV-3
MDA-N = tested on: MDA-N
TK-10 = tested on: TK-10
RPMI-8226 = tested on: RPMI-8226
PC-3 = tested on: PC-3
UACC-62 = tested on: UACC-62
HCC 2998 = tested on: HCC 2998
HCT-116 = tested on: HCT-116
MDA-MB-435 = tested on: MDA-MB-435
NCI-H23 = tested on: NCI-H23
EKVX = tested on: EKVX
OVCAR-4 = tested on: OVCAR-4
SNB-19 = tested on: SNB-19
SF-295 = tested on: SF-295
A549 = tested on: A549
MDA-MB-231 = tested on: MDA-MB-231
COLO 205 = tested on: COLO 205

Structure (SMILES)	GI50 (HCT-15) [µM]	GI50 (HOP-92)	GI50 (UACC-257)	GI50 (SK-OV-3)	GI50 (MDA-N)	GI50 (TK-10)	GI50 (RPMI-8226)	GI50 (PC-3)	GI50 (UACC-62)	GI50 (HCC 2998)	GI50 (HCT-116)	GI50 (MDA-MB-435)	GI50 (NCI-H23)	GI50 (EKVX)	GI50 (OVCAR-4)	GI50 (SNB-19)	GI50 (SF-295)	GI50 (A549)	GI50 (MDA-MB-231)	GI50 (COLO 205)
O=C(O)C(CO)NC(=O)C1C(C(=O)O)C(c2ccccc2[N+](=O)[O-])C=C(c2ccco2)N1c1ccncc1 (stereo not given)	1.95	12.1 µM (inactive)	3.61 µM (inactive)	15.1 µM (inactive)	2.84 µM (inactive)	2.9 µM (inactive)	1.58 µM (inactive)	9.35 µM (inactive)	7.83 µM (inactive)	4.91 µM (inactive)	1.67 µM (inactive)	5.16 µM (inactive)	7.16 µM (inactive)	14.9 µM (inactive)	12.7 µM (inactive)	12 µM (inactive)	7.05 µM (inactive)	3.26 µM (inactive)	3.33 µM (inactive)	4.62 µM (inactive)
CSc1ccc(Nc2cc(=O)[nH]c(=O)[nH]2)cc1	> 100	> 100 µM (inactive)	> 100 µM (inactive)	> 100 µM (inactive)	> 100 µM (inactive)	–	> 100 µM (inactive)	> 100 µM (inactive)	> 100 µM (inactive)	> 100 µM (inactive)	> 100 µM (inactive)	> 100 µM (inactive)	> 100 µM (inactive)	–	> 100 µM (inactive)	> 100 µM (inactive)	> 100 µM (inactive)	> 100 µM (inactive)	> 100 µM (inactive)	> 100 µM (inactive)
CCOP1(=O)CC(C)=C(Cl)C(OC)C1 (stereo not given)	> 100	> 100 µM (inactive)	> 100 µM (inactive)	> 100 µM (inactive)	> 100 µM (inactive)	> 100 µM (inactive)	> 100 µM (inactive)	> 100 µM (inactive)	> 100 µM (inactive)	> 100 µM (inactive)	> 100 µM (inactive)	> 100 µM (inactive)	> 100 µM (inactive)	> 100 µM (inactive)	> 100 µM (inactive)	> 100 µM (inactive)	> 100 µM (inactive)	> 100 µM (inactive)	> 100 µM (inactive)	> 100 µM (inactive)
O=C1c2ccccc2C(=O)c2nn(N=P(CP(=Nn3nc4c(n3)C(=O)c3ccccc3C4=O)(c3ccccc3)c3ccccc3)(c3ccccc3)c3ccccc3)nc21	> 100	96.8 µM (inactive)	> 100 µM (inactive)	> 100 µM (inactive)	> 100 µM (inactive)	> 100 µM (inactive)	> 100 µM (inactive)	> 100 µM (inactive)	> 100 µM (inactive)	> 100 µM (inactive)	> 100 µM (inactive)	> 100 µM (inactive)	> 100 µM (inactive)	> 100 µM (inactive)	> 100 µM (inactive)	> 100 µM (inactive)	> 100 µM (inactive)	> 100 µM (inactive)	> 100 µM (inactive)	> 100 µM (inactive)
NC(CCC(=O)NC(CCC(=O)NO)C(=O)NCC(=O)O)C(=O)O (stereo not given) (γGlu-Glu(NHOH)-Gly-OH; configuration not given here)	> 100	> 100 µM (inactive)	> 100 µM (inactive)	> 100 µM (inactive)	> 100 µM (inactive)	> 100 µM (inactive)	> 100 µM (inactive)	> 100 µM (inactive)	> 100 µM (inactive)	> 100 µM (inactive)	> 100 µM (inactive)	> 100 µM (inactive)	> 100 µM (inactive)	> 100 µM (inactive)	> 100 µM (inactive)	> 100 µM (inactive)	> 100 µM (inactive)	> 100 µM (inactive)	> 100 µM (inactive)	> 100 µM (inactive)
Cc1csc(-c2cn(C)c3c2C(=O)C(=N)C=C3O)n1	6.59	> 100 µM (inactive)	4.26 µM (inactive)	21.2 µM (inactive)	14.1 µM (inactive)	46.1 µM (inactive)	2.83 µM (inactive)	7.01 µM (inactive)	7.59 µM (inactive)	5 µM (inactive)	8.3 µM (inactive)	4.28 µM (inactive)	2.79 µM (inactive)	3.37 µM (inactive)	> 100 µM (inactive)	7.38 µM (inactive)	2.37 µM (inactive)	2.65 µM (inactive)	51.6 µM (inactive)	4.53 µM (inactive)
COc1ccc(C(=O)CCN(C)C)c2ccccc12	21.4	19.5 µM (inactive)	> 40.9 µM (inactive)	> 100 µM (inactive)	21.1 µM (inactive)	> 38.3 µM (inactive)	0.504 µM (active)	17.6 µM (inactive)	> 41.4 µM (inactive)	18 µM (inactive)	21.8 µM (inactive)	19.5 µM (inactive)	20.8 µM (inactive)	24.7 µM (inactive)	24.3 µM (inactive)	> 93.5 µM (inactive)	> 100 µM (inactive)	> 58.2 µM (inactive)	19.1 µM (inactive)	18.6 µM (inactive)
CCOC(C)O[C@H]1C(=O)OCC1(C)C (stereo not given in full)	> 100	> 100 µM (inactive)	> 100 µM (inactive)	> 100 µM (inactive)	> 100 µM (inactive)	> 100 µM (inactive)	> 100 µM (inactive)	> 100 µM (inactive)	> 100 µM (inactive)	> 100 µM (inactive)	–	> 100 µM (inactive)	> 100 µM (inactive)	> 100 µM (inactive)	> 100 µM (inactive)	> 100 µM (inactive)	> 100 µM (inactive)	> 100 µM (inactive)	> 100 µM (inactive)	> 100 µM (inactive)
NC(CCCCNc1ccn(C2OC(CO)C(O)C2O)c(=O)n1)C(=O)O (stereo not given)	74.5	53.7 µM (inactive)	> 100 µM (inactive)	–	> 100 µM (inactive)	> 100 µM (inactive)	> 100 µM (inactive)	> 100 µM (inactive)	> 100 µM (inactive)	76.6 µM (inactive)	–	88.1 µM (inactive)	–	> 100 µM (inactive)	> 100 µM (inactive)	> 100 µM (inactive)	30.6 µM (inactive)	50.5 µM (inactive)	> 100 µM (inactive)	> 100 µM (inactive)
COCC(=O)[C@]1(O)Cc2c(O)c3c(c(O)c2[C@@H](OC2CC(N)C(O)C(C)O2)C1)C(=O)c1c(OC)cccc1C3=O (stereo not given in full)	0.137	0.13 µM (active)	0.299 µM (active)	0.254 µM (active)	0.0767 µM (active)	0.431 µM (active)	0.08 µM (active)	0.0791 µM (active)	0.0545 µM (active)	0.14 µM (active)	0.0493 µM (active)	0.188 µM (active)	0.0536 µM (active)	0.455 µM (active)	0.0826 µM (active)	0.0889 µM (active)	0.0296 µM (active)	0.219 µM (active)	0.296 µM (active)	0.168 µM (active)
O=NN1CCNC1Cc1ccccc1 (stereo not given)	> 100	> 100 µM (inactive)	> 100 µM (inactive)	75.2 µM (inactive)	> 100 µM (inactive)	> 100 µM (inactive)	70 µM (inactive)	> 100 µM (inactive)	46.8 µM (inactive)	> 100 µM (inactive)	71.6 µM (inactive)	> 100 µM (inactive)	72.1 µM (inactive)	> 100 µM (inactive)	> 100 µM (inactive)	35.3 µM (inactive)	49 µM (inactive)	> 100 µM (inactive)	> 100 µM (inactive)	> 100 µM (inactive)
O=C1CSC2(CC(/C=C/c3ccccc3)=NN2c2cccc(S(=O)(=O)O)c2)N1c1nc2ccccc2s1 (stereo not given)	32.6	21.7 µM (inactive)	60 µM (inactive)	–	35.2 µM (inactive)	19.5 µM (inactive)	24.6 µM (inactive)	25.6 µM (inactive)	18.9 µM (inactive)	59.4 µM (inactive)	36.8 µM (inactive)	19.5 µM (inactive)	22 µM (inactive)	60.4 µM (inactive)	20.9 µM (inactive)	21.5 µM (inactive)	–	32.8 µM (inactive)	24.5 µM (inactive)	> 100 µM (inactive)
Cc1ccc(C(=O)N/N=C(\N=N\c2cccc(C)c2)c2ccc(N(CCC#N)CCC#N)cc2C)cc1	> 100	34 µM (inactive)	58.9 µM (inactive)	> 100 µM (inactive)	54.7 µM (inactive)	> 100 µM (inactive)	49.9 µM (inactive)	58.3 µM (inactive)	57.1 µM (inactive)	> 100 µM (inactive)	–	26.4 µM (inactive)	> 100 µM (inactive)	95.3 µM (inactive)	> 100 µM (inactive)	> 100 µM (inactive)	> 100 µM (inactive)	> 100 µM (inactive)	> 100 µM (inactive)	> 100 µM (inactive)
N#CC(C#N)=Cn1c(=S)[nH]c2ccccc21	–	77.8 µM (inactive)	> 100 µM (inactive)	> 100 µM (inactive)	> 100 µM (inactive)	> 100 µM (inactive)	> 100 µM (inactive)	> 100 µM (inactive)	> 100 µM (inactive)	> 100 µM (inactive)	> 100 µM (inactive)	> 100 µM (inactive)	> 100 µM (inactive)	78.3 µM (inactive)	> 100 µM (inactive)	> 100 µM (inactive)	> 100 µM (inactive)	> 100 µM (inactive)	> 100 µM (inactive)	> 100 µM (inactive)
